Where two headings read alike, the source gives them in different places.
Experiments:
Experiment in all cases: MIC / checkerboard with ATM
Assay type in all cases: cell-based, P. aeruginosa
[1] = system: PA-014, blaGES; conditions: for MIC: Pseudomonas aeruginosa, read-out: MIC of ATM with 5, PA-014
[2] = system: PA-003, blaVIM; conditions: PA-003
[3] = system: PA-029, blaIMP; conditions: for MIC: Pseudomonas aeruginosa, read-out: MIC of ATM with 5, PA-029
[4] = system: PA-032, blaIMP; conditions: for MIC: Pseudomonas aeruginosa, read-out: MIC of ATM with 5, PA-032
[5] = system: PA-025, blaNDM; conditions: for MIC: Pseudomonas aeruginosa, read-out: MIC of ATM with 5, PA-025
[6] = system: PA-031, blaNDM; conditions: for MIC: Pseudomonas aeruginosa, read-out: MIC of ATM with 5, PA-031
[7] = system: PA-033, blaNDM; conditions: for MIC: Pseudomonas aeruginosa, read-out: MIC of ATM with 5, PA-033
[8] = system: PA-037, blaIMP/NDM; conditions: for MIC: Pseudomonas aeruginosa, read-out: MIC of ATM with 5, PA-037

CC(C)(C)CCOc1c(-c2ccc(F)c(F)c2)oc2cc(OCC(=O)O)cc(O)c2c1=O [Compound 5, 2-((2-(3,4-Difluorophenyl)-3-(3,3-dimethylbutoxy)-5-hydroxy-4-oxo-4H-chromen-7-yl)oxy)acetic Acid]
Activity (FICI class) ([1]; PA-014): S (S (Synergy, FICI ≤ 0.5))
Concentrations of ATM and 5 at lowest FICI (ATM/5) ([1]; PA-014): 4/16
Lowest FICI (ATM/5) ([1]; PA-014): 0.28
Minimum concentration of 5 to make sensitive to ATM ([1]; PA-014): 4 mg/L
Susceptibility to ATM ([1]; PA-014, ATM/5): S (S (sensitive, MIC ≤ 8 mg/L))
FD (fold decrease in MIC of ATM with 5) ([1]; PA-014, lowest-FICI combination): 4
MIC ([1]; 5 at 1 mg/L): 16 µg/mL
MIC ([1]; 5 at 2 mg/L): 16 µg/mL
MIC ([1]; 5 at 4 mg/L): 8 µg/mL
MIC ([1]; 5 at 8 mg/L): 8 µg/mL
MIC ([1]; 5 at 16 mg/L): 4 µg/mL
MIC ([1]; 5 at 32 mg/L): 4 µg/mL
MIC ([1]; 5 at 64 mg/L): 4 µg/mL
Activity (FICI class) [2]: I (I (indifference, 0.5 < FICI ≤ 4))
Concentrations of ATM and 5 at lowest FICI (ATM/5) [2]: 16/1
Minimum concentration of 5 to make sensitive to ATM [2]: 1 mg/L
MIC of ATM with 5 ([2]; 5 at 2 mg/L): 16 µg/mL
MIC of ATM with 5 ([2]; 5 at 4 mg/L): 16 µg/mL
MIC of ATM with 5 ([2]; 5 at 8 mg/L): 16 µg/mL
MIC of ATM with 5 ([2]; 5 at 16 mg/L): 16 µg/mL
MIC of ATM with 5 ([2]; 5 at 32 mg/L): 16 µg/mL
MIC of ATM with 5 ([2]; 5 at 64 mg/L): 16 µg/mL
Susceptibility to ATM ([2]; ATM/5): I (I (intermediate, MIC = 16 mg/L))
FD (fold decrease in MIC of ATM with 5) ([2]; lowest-FICI combination): 2
MIC ([2]; Pseudomonas aeruginosa, read-out: MIC of ATM with 5, 5 at 1 mg/L): 16 µg/mL
Activity (FICI class) ([3]; PA-029): S (S (Synergy, FICI ≤ 0.5))
Concentrations of ATM and 5 at lowest FICI (ATM/5) ([3]; PA-029): 8/16
Lowest FICI (ATM/5) ([3]; PA-029): 0.28
Minimum concentration of 5 to make sensitive to ATM ([3]; PA-029): 16 mg/L
Susceptibility to ATM ([3]; PA-029, ATM/5): S (S (sensitive, MIC ≤ 8 mg/L))
FD (fold decrease in MIC of ATM with 5) ([3]; PA-029, lowest-FICI combination): 4
MIC ([3]; 5 at 1 mg/L): 32 µg/mL
MIC ([3]; 5 at 2 mg/L): 32 µg/mL
MIC ([3]; 5 at 4 mg/L): 16 µg/mL
MIC ([3]; 5 at 8 mg/L): 16 µg/mL
MIC ([3]; 5 at 16 mg/L): 8 µg/mL
MIC ([3]; 5 at 32 mg/L): 8 µg/mL
MIC ([3]; 5 at 64 mg/L): 8 µg/mL
Activity (FICI class) ([4]; PA-032): S (S (Synergy, FICI ≤ 0.5))
Concentrations of ATM and 5 at lowest FICI (ATM/5) ([4]; PA-032): 2/8
Susceptibility to ATM ([4]; PA-032, ATM/5): S (S (sensitive, MIC ≤ 8 mg/L))
FD (fold decrease in MIC of ATM with 5) ([4]; PA-032, lowest-FICI combination): 4
MIC ([4]; 5 at 1 mg/L): 4 µg/mL
MIC ([4]; 5 at 2 mg/L): 4 µg/mL
MIC ([4]; 5 at 4 mg/L): 4 µg/mL
MIC ([4]; 5 at 8 mg/L): 2 µg/mL
MIC ([4]; 5 at 16 mg/L): 1 µg/mL
MIC ([4]; 5 at 32 mg/L): 1 µg/mL
MIC ([4]; 5 at 64 mg/L): 1 µg/mL
Activity (FICI class) ([5]; PA-025): S (S (Synergy, FICI ≤ 0.5))
Concentrations of ATM and 5 at lowest FICI (ATM/5) ([5]; PA-025): 4/16
Lowest FICI (ATM/5) ([5]; PA-025): 0.28
Minimum concentration of 5 to make sensitive to ATM ([5]; PA-025): 4 mg/L
Susceptibility to ATM ([5]; PA-025, ATM/5): S (S (sensitive, MIC ≤ 8 mg/L))
FD (fold decrease in MIC of ATM with 5) ([5]; PA-025, lowest-FICI combination): 4
MIC ([5]; 5 at 1 mg/L): 16 µg/mL
MIC ([5]; 5 at 2 mg/L): 16 µg/mL
MIC ([5]; 5 at 4 mg/L): 8 µg/mL
MIC ([5]; 5 at 8 mg/L): 8 µg/mL
MIC ([5]; 5 at 16 mg/L): 4 µg/mL
MIC ([5]; 5 at 32 mg/L): 2 µg/mL
MIC ([5]; 5 at 64 mg/L): 2 µg/mL
Activity (FICI class) ([6]; PA-031): S (S (Synergy, FICI ≤ 0.5))
Concentrations of ATM and 5 at lowest FICI (ATM/5) ([6]; PA-031): 1/8
Lowest FICI (ATM/5) ([6]; PA-031): 0.27
Susceptibility to ATM ([6]; PA-031, ATM/5): S (S (sensitive, MIC ≤ 8 mg/L))
FD (fold decrease in MIC of ATM with 5) ([6]; PA-031, lowest-FICI combination): 4
MIC ([6]; 5 at 1 mg/L): 2 µg/mL
MIC ([6]; 5 at 2 mg/L): 2 µg/mL
MIC ([6]; 5 at 4 mg/L): 2 µg/mL
MIC ([6]; 5 at 8 mg/L): 1 µg/mL
MIC ([6]; 5 at 16 mg/L): 1 µg/mL
MIC ([6]; 5 at 32 mg/L): 1 µg/mL
MIC ([6]; 5 at 64 mg/L): 1 µg/mL
Activity (FICI class) ([7]; PA-033): I (I (indifference, 0.5 < FICI ≤ 4))
Concentrations of ATM and 5 at lowest FICI (ATM/5) ([7]; PA-033): 1/8
Lowest FICI (ATM/5) ([7]; PA-033): 0.52
Susceptibility to ATM ([7]; PA-033, ATM/5): S (S (sensitive, MIC ≤ 8 mg/L))
FD (fold decrease in MIC of ATM with 5) ([7]; PA-033, lowest-FICI combination): 2
MIC ([7]; 5 at 1 mg/L): 2 µg/mL
MIC ([7]; 5 at 2 mg/L): 2 µg/mL
MIC ([7]; 5 at 4 mg/L): 2 µg/mL
MIC ([7]; 5 at 8 mg/L): 1 µg/mL
MIC ([7]; 5 at 16 mg/L): 1 µg/mL
MIC ([7]; 5 at 32 mg/L): 1 µg/mL
MIC ([7]; 5 at 64 mg/L): 1 µg/mL
Activity (FICI class) ([8]; PA-037): S (S (Synergy, FICI ≤ 0.5))
Concentrations of ATM and 5 at lowest FICI (ATM/5) ([8]; PA-037): 1/8
Lowest FICI (ATM/5) ([8]; PA-037): 0.27
Susceptibility to ATM ([8]; PA-037, ATM/5): S (S (sensitive, MIC ≤ 8 mg/L))
FD (fold decrease in MIC of ATM with 5) ([8]; PA-037, lowest-FICI combination): 4
MIC ([8]; 5 at 1 mg/L): 2 µg/mL
MIC ([8]; 5 at 2 mg/L): 2 µg/mL

From article PMC11672637, “7-O-Carboxylic Acid-Substituted 3-O-Alkyl Difluoroquercetin; An Aztreonam-Potentiating Agent Against Carbapenemase-Producing Pseudomonas aeruginosa Through Simultaneous Inhibition of Metallo-β-Lactamase and Efflux Pump” (Antibiotics, 2024)
